Data reported in patent US20210338715A1, “PHARMACEUTICAL COMPOSITION FOR THE TREATMENT OF COVID-19” (RADINOR, LLC, priority 2020, published 2021).

Columns and labels:
[1] = humans; intake over a period of 14 days; cited from earlier work
coronavirus = conditions: cited from earlier work
human coronavirus = conditions: cited from earlier work
[2] = Side effects of systemic therapeutic use; assay type: in vivo, human; conditions: systemic therapeutic use in the context of the invention
Description: In line with the reaction kinetic knowledge from the topical application of ClO2 solutions by Noszticzius et al., it was possible to confirm in the course of the present invention that, contrary to the earlier fears of parts of the professional world, a systemic therapeutic use of reactive oxidative species such as ClO2 need not in any way be accompanied by undesirable or even damaging effects.

## [O][Cl+][O-] [chlorine dioxide]
[1]
  lethal dose LD50: 292 mg per kilogram of body weight per day
coronavirus
  effectiveness against coronavirus: effective against coronavirus
Human coronavirus
  effectiveness against human coronavirus: effective against human coronavirus
[2]
  serious side effects or deaths: no such effects have come to light
